# Test results: patent publication US20220249413A1, “SWELL 1 MODULATORS FOR TREATMENT OF NON-ALCOHOLIC FATTY LIVER DISEASE, IMMUNE DEFICIENCIES, MALE INFERTILITY AND VASCULAR DISEASES” (priority 2019, published 2022)
# System: insulin-AKT2-AS160 signaling
# Test: Insulin-stimulated pAKT2/pAS160 signaling in 3T3-F442A cells (Western blot)
# Assay type: cell-based
# Procedure: For Smod1 (DCPIB) mediated induction of SWELL1 and insulin signaling studies in 3T3-F442A preadipocytes, the cells were incubated with either vehicle (DMSO) or 10 μM Smod1 for 96 h. The cells were serum starved for 6 h (+DMSO or Smod1) and stimulated with 0, 3 and 10 nM insulin containing media (−DMSO or Smod1), as described above for 15 mins and the lysates were collected. In the case of 3T3-F442A adipocytes, the WT and KO cells were treated with either vehicle (DMSO) or 10 μM Smod1 following 7-11 days of differentiation for 96 h and then stimulated with 0 and 10 nM insulin for 15 min, as described above. Human embryonic kidney (HEK) cells were cultured and maintained in 90% DMEM (25 mM D-Glucose and 4 mM L-Glutamine) containing 10% fetal bovine serum (FBS) and 100 IU penicillin and 100 μg/ml streptomycin media.
# Electrophysiology Patch-clamp recordings of β-cells and mature adipocytes were performed as described previously (Zhang et al., Nat Cell Biol, 19, 504-517, 2017; Kang et al., Nature Communications, 9, 367, 2018). 3T3-F442A WT and KO preadipocytes were prepared as described in the Cell culture section above. For SWELL1 overexpression recordings, preadipocytes were first transduced with Ad5-CAG-LoxP-stop-LoxP-3× Flag-SWELL1 (MOI 12) in 2% FBS culture medium for two days and then overexpression induced by adding Ad5-CMV-Cre-wt-IRES-eGFP (MOI 10-12) in 2% FBS culture medium for two more days and changed to 10% FBS containing culture media and were selected based on GFP expression (˜2-3 days). For 3-cell recordings, islets were transduced with Ad-RIP2-GFP and then dispersed after 48-72 hours for patch-clamp experiments. GFP+ cells marked […] selected for patch-clamp recordings. Recordings were measured using Axopatch 200B amplifier paired to a Digidata 1550 digitizer using pClamp 10.4 software. The extracellular buffer composition for hypotonic stimulation contains 90 mM NaCl, 2 mM CsCl, 1 mM MgCl2, 1 mM CaCl2), 10 mM HEPES, 10 mM Mannitol, pH 7.4 with NaOH (210 mOsm/kg). […] The images were further analyzed for band intensities using ImageJ software. […]
smiles,measurement,setting,value
"CCCCC1(C2CCCC2)Cc2cc(OCCCC(=O)O)c(Cl)c(Cl)c2C1=O (stereo not drawn) [Smod1, 4-[(2-Butyl-6,7-dichloro-2-cyclopentyl-2,3-dihydro-1-oxo-1H-inden-5-yl)oxy]butanoic acid]",effects on insulin-AKT2-AS160 signaling in SWELL1 KO,SWELL1 KO 3T3-F442A adipocytes,absent
same,insulin-stimulated pAS160,"WT 3T3-F442A adipocytes, 10 μM for 96 h",enhanced
same,insulin-stimulated pAKT2,"WT 3T3-F442A preadipocytes/adipocytes, 10 μM for 96 h",enhanced
